Laboratory results as given in patent US10407467B2, “Polymyxin derivatives and their use in combination therapy together with different antibiotics” (priority 2013, dated 2019).
Bridge positions count the residues as written; N and C are the ends. Square brackets hold non-standard residues; d marks the D form. Peptide text beside a SMILES is read from it. * marks the point of attachment. ξ: configuration not given here. Thr(3ξ) = CC(O)[C@H](N)C(=O)O; Dab = NCC[C@H](N)C(=O)O; X16 = CN(C)CCCC(=O)*; Glycolyl = O=C(CO)*; X15 = O=C(C1CCNC1)*; Ava = NCCCCC(=O)O

Assays:
Type in all cases: cell-based
Klebsiella pneumoniae [1] = assay: MIC, compound in combination with a second agent (broth microdilution); settings: 1:1 (wt:wt) combination with Rifampicin, MIC = total drug concentration; for MIC K. pneumoniae ATCC-BAA-2146: strain ATCC-BAA-2146; for MIC K. pneumoniae CCUG-59348: strain CCUG-59348; for MIC K. pneumoniae NCTC 13438: strain NCTC 13438
Protocol: (§1) To evaluate the potency and spectrum of the compounds both alone and in combination with another agent, susceptibility testing was performed against up to four strains of each of the four Gram negative pathogens, Escherichia coli, Pseudomonas aeruginosa, Klebsiella pneumoniae and Acinetobacter baumannii.
(§2) Ratios of components in a combination, such as 1:1, refers to a weight to weight ratio. The minimum inhibitory concentration (MIC) refers to the total drug concentration (e.g. test compound plus second agent, such as Rifampicin).
(§3) The inoculum was prepared by making a direct suspension of isolated colonies (selected from an 18-24 hour Mueller-Hinton agar plate) adjusted to the 0.5 McFarland standard.
(§4) The assays were performed in duplicate.
(§5) In cases where the duplicate values varied by less than 2-fold, the lower of the two values is reported. If a variation of greater than 2-fold was observed, the assay was considered non-valid. Several of the compounds were subjected to multiple tests, and where this is the case, the MIC reflects the modal value obtained.
(§6) The minimum inhibitory concentration refers to the total drug concentration (e.g. test compound plus Rifampicin). The compounds are used at equal mass within the combination. The weight refers to the mass of compound as used, for example the Example Compounds are used in their TFA or sulphate salt forms.
(§7) MICs refer to the total drug concentration. Thus, where a 1:1 combination is used, this is the amount of the test compound plus the second agent. For comparison, the MIC values for the second agent alone are also given.

Acinetobacter baumannii [2] = assay: as above; settings: 1:1 (wt:wt) combination with Rifampicin; MIC = total drug concentration; strain NCTC 13424
Protocol: as §1, §2, §3, §4, §5, §6, §7

Pseudomonas aeruginosa [3] = assay: as above; settings: 1:1 (wt:wt) combination with Rifampicin; MIC = total drug concentration; strain CCUG 59626
Protocol: as §1, §2, §3, §4, §5, §6, §7

Escherichia coli = assay: MIC, sole activity (no second agent)
Outline: (§8)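 Inoculum: direct colony suspension (18-24 h MH agar), 0.5 McFarland. Medium: cation-adjusted MHB. Up to 4 strains/species; reported relative to Polymyxin B.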

Klebsiella pneumoniae [4] = assay: MIC, sole activity (no second agent)
Outline: as §8

Pseudomonas aeruginosa [5] = assay: MIC, sole activity (no second agent); settings: for MIC P. aeruginosa ATCCCRM-9027: strain ATCCCRM-9027
Outline: as §8

Acinetobacter baumannii [6] = assay: MIC, sole activity (no second agent); settings: for MIC A. baumannii ATCCBAA-747 / MIC A. baumannii NCTC 13423: in the absence of Rifampicin; for MIC A. baumannii ATCCBAA-747: strain ATCCBAA-747; for MIC A. baumannii NCTC 13423: strain NCTC13423; for MIC A. baumannii ATCC BAA-747 / MIC A. baumannii NCTC 13424: Table 6A, no second agent, different supplier of Cation-adjusted MHB
Outline: as §8

[7] = in the absence of Rifampicin, strain ATCC25922
[8] = in the absence of Rifampicin, strain ATCC 4352
[9] = in the absence of Rifampicin, strain ATCC27853
[10] = Table 6A, no second agent, different supplier of Cation-adjusted MHB

Compound | MIC K. pneumoniae ATCC-BAA-2146 (Klebsiella pneumoniae [1]) | MIC K. pneumoniae CCUG-59348 (Klebsiella pneumoniae [1]) | MIC A. baumannii NCTC 13424 (Acinetobacter baumannii [2]) | MIC P. aeruginosa CCUG 59626 (Pseudomonas aeruginosa [3]) | MIC E. coli ATCC25922 (Escherichia coli; [7]) | MIC K. pneumoniae ATCC 4352 (Klebsiella pneumoniae [4]; [8]) | MIC P. aeruginosa ATCC 27853 (Pseudomonas aeruginosa [5]; [9]) | MIC E. coli NCTC9001 (Escherichia coli; in the absence of Rifampicin, strain NCTC9001) | MIC A. baumannii ATCCBAA-747 (Acinetobacter baumannii [6]) | MIC A. baumannii NCTC 13423 (Acinetobacter baumannii [6]) | MIC P. aeruginosa ATCCCRM-9027 (Pseudomonas aeruginosa [5]; in the absence of Rifampicin) | MIC K. pneumoniae NCTC 13438 (Klebsiella pneumoniae [1]) | MIC E. coli ATCC25922 (Escherichia coli; [10]) | MIC E. coli NCTC 13441 (Escherichia coli; [10]) | MIC K. pneumoniae ATCC 4352 (Klebsiella pneumoniae [4]; [10]) | MIC K. pneumoniae ATCC BAA-2146 (Klebsiella pneumoniae [4]; [10]) | MIC A. baumannii ATCC BAA-747 (Acinetobacter baumannii [6]) | MIC A. baumannii NCTC 13424 (Acinetobacter baumannii [6]) | MIC P. aeruginosa ATCC 27853 (Pseudomonas aeruginosa [5]; [10]) | MIC P. aeruginosa CCUG 59347 (Pseudomonas aeruginosa [5]; [10])
CC(C)C[C@@H]1NC(=O)[C@@H](Cc2ccccc2)NC(=O)[C@H](CCN)NC(=O)[C@@H](NC(=O)[C@H](CCN)NC(=O)[C@@H](NC(=O)CC(C)O)C(C)O)CCNC(=O)[C@H](C(C)O)NC(=O)[C@H](CCN)NC(=O)[C@H](CCN)NC1=O (mixture of isomers) [Example 15, 3(RS)-3- Hydroxybutanoyl polymyxin B nonapeptide] | 4 micrograms/mL | 16 micrograms/mL | 0.5 micrograms/mL | 0.5 micrograms/mL | 4 micrograms/mL | 8 micrograms/mL | 0.5 micrograms/mL | – | – | – | – | – | – | – | – | – | – | – | – | –
CC(C)C[C@@H]1NC(=O)[C@@H](Cc2ccccc2)NC(=O)[C@H](CCN)NC(=O)[C@@H](NC(=O)[C@H](CCN)NC(=O)[C@@H](NC(=O)CCCCN)C(C)O)CCNC(=O)[C@H](C(C)O)NC(=O)[C@H](CCN)NC(=O)[C@H](CCN)NC1=O (some centres unmarked) [Example 6, 5-Aminopentanoyl polymyxin B nonapeptide] (H-[Ava][Thr(3ξ)][Dab][Dab][Dab][dF]L[Dab][Dab][Thr(3ξ)]; lactam 4-C) | – | 4 micrograms/mL | – | ≤0.06 micrograms/mL | 2 micrograms/mL | 0.5 micrograms/mL | 0.25 micrograms/mL | 2 micrograms/mL | 8 micrograms/mL | 4 micrograms/mL | 0.125 micrograms/mL | – | – | – | – | – | – | – | – | –
CC(C)C[C@@H]1NC(=O)[C@@H](Cc2ccccc2)NC(=O)[C@H](CCN)NC(=O)[C@@H](NC(=O)[C@H](CCN)NC(=O)[C@@H](NC(=O)CO)C(C)O)CCNC(=O)[C@H](C(C)O)NC(=O)[C@H](CCN)NC(=O)[C@H](CCN)NC1=O (some centres unmarked) [Example 8, Hydroxyacetyl polymyxin B nonapeptide] (Glycolyl-[Thr(3ξ)][Dab][Dab][Dab][dF]L[Dab][Dab][Thr(3ξ)]; lactam 3-C) | 2 micrograms/mL | 8 micrograms/mL | 0.5 micrograms/mL | 0.25 micrograms/mL | 32 micrograms/mL | 8 micrograms/mL | 0.25 micrograms/mL | – | – | – | – | – | – | – | – | – | – | – | – | –
CC(C)C[C@@H]1NC(=O)[C@@H](Cc2ccccc2)NC(=O)[C@H](CCN)NC(=O)[C@@H](NC(=O)[C@H](CCN)NC(=O)[C@@H](NC(=O)C2CCNC2)C(C)O)CCNC(=O)[C@H](C(C)O)NC(=O)[C@H](CCN)NC(=O)[C@H](CCN)NC1=O (stereo partly drawn) [Example 9, [3(R,S)-Pyrrolidine-3-carbonyl]polymyxin B nonapeptide] (X15-[Thr(3ξ)][Dab][Dab][Dab][dF]L[Dab][Dab][Thr(3ξ)]; lactam 3-C) | 1 micrograms/mL | 8 micrograms/mL | – | 0.125 micrograms/mL | 0.5 micrograms/mL | 0.5 micrograms/mL | 0.25 micrograms/mL | – | 4 micrograms/mL | 2 micrograms/mL | 2 micrograms/mL | 0.25 micrograms/mL | – | – | – | – | – | – | – | –
CC(C)C[C@@H]1NC(=O)[C@@H](Cc2ccccc2)NC(=O)[C@H](CCN)NC(=O)[C@@H](NC(=O)[C@H](CCN)NC(=O)[C@@H](NC(=O)CCCN(C)C)C(C)O)CCNC(=O)[C@H](C(C)O)NC(=O)[C@H](CCN)NC(=O)[C@H](CCN)NC1=O (some centres unmarked) [Example 11, 4-(N,N-dimethylamino)-butanoyl polymyxin B nonapeptide] (X16-[Thr(3ξ)][Dab][Dab][Dab][dF]L[Dab][Dab][Thr(3ξ)]; lactam 3-C) | 0.5 micrograms/mL | 4 micrograms/mL | – | 0.25 micrograms/mL | 0.5 micrograms/mL | 0.5 micrograms/mL | 0.125 micrograms/mL | – | 16 micrograms/mL | 4 micrograms/mL | 2 micrograms/mL | 1 micrograms/mL | – | – | – | – | – | – | – | –
[3(R,S)-3-Amino-3- cyclohexanepropanoyl]-L- Phe- polymyxin B nonapeptide isomer 2 [Example A21] | – | – | – | – | – | – | – | – | – | – | – | – | >8 micrograms/mL | >8 micrograms/mL | >8 micrograms/mL | >8 micrograms/mL | >8 micrograms/mL | >8 micrograms/mL | >8 micrograms/mL | >8 micrograms/mL
[3(R,S)-3-Amino-3- cyclohexanepropanoyl]-L- Pro- polymyxin B nonapeptide isomer 1 [Example A8] | – | – | – | – | – | – | – | – | – | – | – | – | >8 micrograms/mL | >8 micrograms/mL | >8 micrograms/mL | – | >8 micrograms/mL | >8 micrograms/mL | 2 micrograms/mL | 4 micrograms/mL
[3(R,S)-3-Amino-3- cyclohexanepropanoyl]-L- Pro- polymyxin B nonapeptide isomer 2 [Example A9] | – | – | – | – | – | – | – | – | – | – | – | – | >8 micrograms/mL | >8 micrograms/mL | >8 micrograms/mL | – | >8 micrograms/mL | >8 micrograms/mL | 2 micrograms/mL | >8 micrograms/mL
[3(R,S)-3-Amino-3- cyclohexanepropanoyl]-L- Ser- polymyxin B nonapeptide [Example A11] | – | – | – | – | – | – | – | – | – | – | – | – | >8 micrograms/mL | 8 micrograms/mL | 8 micrograms/mL | – | 4 micrograms/mL | 4 micrograms/mL | 1 micrograms/mL | 2 micrograms/mL
[3(R,S)-3-Amino-3- cyclohexanepropanoyl]-L- Tyr- polymyxin B nonapeptide [Example A27] | – | – | – | – | – | – | – | – | – | – | – | – | >8 micrograms/mL | >8 micrograms/mL | >8 micrograms/mL | >8 micrograms/mL | 8 micrograms/mL | >8 micrograms/mL | – | 4 micrograms/mL
[3(R,S)-3-Amino-3- cyclohexanepropanoyl]-[4R- 4-hydroxy-L-Pro]-polymyxin B nonapeptide [Example A12] | – | – | – | – | – | – | – | – | – | – | – | – | >8 micrograms/mL | >8 micrograms/mL | >8 micrograms/mL | – | 8 micrograms/mL | 8 micrograms/mL | 2 micrograms/mL | 4 micrograms/mL
